Here are results for 39 compounds from patent US20260306640A1, “TECHNOLOGIES TARGETING CELL STATES” (Auron Therapeutics, Inc., priority 2023, published 2026).

For orientation: DC50 means the concentration giving 50% degradation.

Structures are written as SMILES.

The target of one assay is KAT2A (Homo sapiens, UniProt Q92830). The assay is described as follows: KAT2A degradation, Western Blot (Jess), NCI-H1048 cells. It counts as cell-based. Further details: degrader, Western blot (Jess). The note with it: NCI-H1048 cells, KAT2A, 24 h, Western Blot, vs DMSO; read-out: KAT2A NCI-H1048 DC50. The method, boiled down: (§1)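 NCI-H1048 cells grown in HITES medium with 5% FBS were treated with compounds for 24 h at 37° C. Lysates were run by capillary Western (Jess) with KAT2A or KAT2B antibodies and chemiluminescent detection. DC50 derived from percent protein reduction versus DMSO control.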
KAT2A, sequence (Q92830 whole entry): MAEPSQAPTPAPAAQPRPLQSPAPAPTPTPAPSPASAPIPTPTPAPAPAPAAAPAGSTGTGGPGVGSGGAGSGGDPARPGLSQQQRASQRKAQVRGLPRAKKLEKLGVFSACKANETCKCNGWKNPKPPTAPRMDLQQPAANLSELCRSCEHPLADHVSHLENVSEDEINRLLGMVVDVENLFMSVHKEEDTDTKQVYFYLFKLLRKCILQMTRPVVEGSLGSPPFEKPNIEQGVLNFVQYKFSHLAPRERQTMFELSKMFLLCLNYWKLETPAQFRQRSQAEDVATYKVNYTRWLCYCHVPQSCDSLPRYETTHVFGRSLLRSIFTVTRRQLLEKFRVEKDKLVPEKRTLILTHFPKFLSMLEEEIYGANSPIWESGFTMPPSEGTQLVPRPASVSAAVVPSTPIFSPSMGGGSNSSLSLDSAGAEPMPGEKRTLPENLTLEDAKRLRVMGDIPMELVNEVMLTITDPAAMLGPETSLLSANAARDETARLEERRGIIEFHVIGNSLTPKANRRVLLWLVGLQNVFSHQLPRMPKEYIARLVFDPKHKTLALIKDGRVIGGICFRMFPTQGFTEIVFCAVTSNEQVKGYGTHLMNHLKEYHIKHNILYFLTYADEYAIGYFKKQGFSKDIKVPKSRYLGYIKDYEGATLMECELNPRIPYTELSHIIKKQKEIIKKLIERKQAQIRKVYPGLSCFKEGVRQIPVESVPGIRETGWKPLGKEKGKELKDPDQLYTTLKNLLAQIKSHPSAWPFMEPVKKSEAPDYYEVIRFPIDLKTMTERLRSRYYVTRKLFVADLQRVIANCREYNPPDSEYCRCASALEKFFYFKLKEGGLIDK
(In general: A western blot detects proteins with antibodies after separation by electrophoresis.)

In the next assay the target is KAT2B (Homo sapiens, UniProt Q92831). The assay is described as follows: KAT2B degradation, Western Blot (Jess), NCI-H1048 cells. It counts as cell-based. The note with it: NCI-H1048 cells, KAT2B, 24 h, Western Blot, vs DMSO; read-out: KAT2B NCI-H1048 DC50. Also noted: degrader, Western blot (Jess). The method, boiled down: as §1
KAT2B, sequence (Q92831 whole entry): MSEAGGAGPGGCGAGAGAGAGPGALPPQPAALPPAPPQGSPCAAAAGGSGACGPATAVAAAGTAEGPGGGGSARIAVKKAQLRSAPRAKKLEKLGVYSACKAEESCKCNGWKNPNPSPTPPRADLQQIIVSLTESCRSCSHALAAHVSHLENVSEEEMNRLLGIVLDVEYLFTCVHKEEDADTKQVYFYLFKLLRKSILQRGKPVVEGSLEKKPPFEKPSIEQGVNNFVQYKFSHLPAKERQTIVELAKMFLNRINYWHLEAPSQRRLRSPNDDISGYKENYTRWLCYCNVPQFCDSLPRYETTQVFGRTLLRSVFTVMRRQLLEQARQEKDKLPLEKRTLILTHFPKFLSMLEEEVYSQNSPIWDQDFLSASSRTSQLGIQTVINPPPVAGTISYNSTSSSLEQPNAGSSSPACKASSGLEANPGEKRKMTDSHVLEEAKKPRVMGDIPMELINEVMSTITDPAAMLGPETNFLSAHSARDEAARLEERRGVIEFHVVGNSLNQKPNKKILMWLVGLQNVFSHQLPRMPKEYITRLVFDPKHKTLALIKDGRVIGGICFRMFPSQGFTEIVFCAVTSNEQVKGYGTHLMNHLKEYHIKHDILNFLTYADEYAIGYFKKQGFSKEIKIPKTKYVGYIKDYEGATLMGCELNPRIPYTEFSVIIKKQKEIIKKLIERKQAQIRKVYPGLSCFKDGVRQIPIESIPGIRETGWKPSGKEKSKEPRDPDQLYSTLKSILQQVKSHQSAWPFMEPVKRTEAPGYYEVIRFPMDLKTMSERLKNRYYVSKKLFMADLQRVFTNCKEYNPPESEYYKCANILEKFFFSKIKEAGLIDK

Take `Cc1cc(N2CC3(CCN(C(=O)c4ccc([C@H]5C[C@@H](Nc6cnn(C)c(=O)c6Cl)CN(C)C5)cc4)CC3)C2)ccc1C1CCC(=O)NC1=O` (stereo partly drawn) [Compound 290]: the 50% degradation concentration (DC50) on KAT2A is 1 to 30 nM; on KAT2B it was more than 30 nM.
For `Cc1cc(N2CC3(CCN(C(=O)c4ccc([C@H]5C[C@@H](Nc6cnn(C)c(=O)c6Br)CN(C)C5)cc4)CC3)C2)ccc1C1CCC(=O)NC1=O` (stereo partly drawn) [Compound 291], in that order: less than 1 nM and 1 to 30 nM.
For `Cc1cc(N2CCC3(CC2)CN(C(=O)c2ccc([C@H]4C[C@@H](Nc5cnn(C)c(=O)c5Br)CN(C)C4)cc2)C3)ccc1C1CCC(=O)NC1=O` (stereo partly drawn) [Compound 292], the DC50 was less than 1 nM at KAT2A and 1 to 30 nM at KAT2B.
The matching figures for `CN1C[C@H](Nc2cnn(C)c(=O)c2Cl)C[C@H](c2ccc(C(=O)N3CCC4(CC3)CCN(c3ccc5c(C6CCC(=O)NC6=O)nccc5c3)CC4)cc2)C1` (stereo partly drawn) [Compound 293]: less than 1 nM and 1 to 30 nM.
As for `CN1C[C@H](Nc2cnn(C)c(=O)c2Br)C[C@H](c2ccc(C(=O)N3CCC4(CC3)CCN(c3ccc5c(C6CCC(=O)NC6=O)nccc5c3)CC4)cc2)C1` (stereo partly drawn) [Compound 294], the 50% degradation concentration (DC50) at KAT2A and at KAT2B was less than 1 nM throughout.
With `Cc1c(N[C@@H]2C[C@H](c3ccc(C(=O)N4CCC5(CC4)CCN(c4ccc6c(C7CCC(=O)NC7=O)nccc6c4)CC5)cc3)CN(C)C2)cnn(C)c1=O` (stereo partly drawn) [Compound 295], the DC50 was less than 1 nM at KAT2A and 1 to 30 nM on KAT2B.
For `CN1C[C@H](Nc2cnn(C)c(=O)c2Cl)C[C@H](c2ccc(C(=O)N3CCC4(CC3)CCN(c3ccc5c(C6CCC(=O)NC6=O)cncc5c3)CC4)cc2)C1` (stereo partly drawn) [Compound 296], in that order: less than 1 nM and less than 1 nM.
For `CN1C[C@H](Nc2cnn(C)c(=O)c2Br)C[C@H](c2ccc(C(=O)N3CCC4(CC3)CCN(c3ccc5c(C6CCC(=O)NC6=O)cncc5c3)CC4)cc2)C1` (stereo partly drawn) [Compound 297], in that order: less than 1 nM and less than 1 nM.
As for `CN1C[C@H](Nc2cnn(C)c(=O)c2Cl)C[C@H](c2ccc(CN3CCN(c4ccc5cc(C6CCC(=O)NC6=O)cnc5c4)CC3)cc2)C1` (stereo partly drawn) [Compound 298], the DC50 on KAT2A is less than 1 nM; on KAT2B, more than 30 nM.
Take `CN1C[C@H](Nc2cnn(C)c(=O)c2Br)C[C@H](c2ccc(CN3CCN(c4ccc5cc(C6CCC(=O)NC6=O)cnc5c4)CC3)cc2)C1` (stereo partly drawn) [Compound 299]: the DC50 was less than 1 nM at KAT2A and 1 to 30 nM on KAT2B.
For `CN1C[C@H](Nc2cnn(C)c(=O)c2Br)C[C@H](c2ccc(C(=O)N3CCC4(CC3)CCN(c3ccc5c(c3)C(=O)N(C3CCC(=O)NC3=O)C5=O)CC4)cc2)C1` (stereo partly drawn) [Compound 300], in that order: less than 1 nM and less than 1 nM.
For `CN1C[C@H](Nc2cnn(C)c(=O)c2Cl)C[C@H](c2ccc(C(=O)N3CCC4(CC3)CCN(c3ccc5c(c3)C(=O)N(C3CCC(=O)NC3=O)C5=O)CC4)cc2)C1` (stereo partly drawn) [Compound 301], in that order: less than 1 nM and less than 1 nM.
For `CN1C[C@H](Nc2cnn(C)c(=O)c2Cl)C[C@H](c2ccc(C(=O)N3CCC4(CC3)CCN(c3cccc5c3C(=O)N(C3CCC(=O)NC3=O)C5=O)CC4)cc2)C1` (stereo partly drawn) [Compound 302], in that order: 1 to 30 nM and 1 to 30 nM.
Turning to `Cc1c(N[C@@H]2C[C@H](c3ccc(CN4CCN(c5ccc6c(c5)C(=O)N(C5CCC(=O)NC5=O)C6=O)CC4)cc3)CN(C)C2)cnn(C)c1=O` (stereo partly drawn) [Compound 303], the 50% degradation concentration (DC50) on KAT2A is less than 1 nM; at KAT2B, 1 to 30 nM.
For the compound `CN1C[C@H](Nc2cnn(C)c(=O)c2Br)C[C@H](c2ccc(CN3CCN(c4cc5c(cc4F)C(=O)N(C4CCC(=O)NC4=O)C5=O)CC3)cc2)C1` (stereo partly drawn) [Compound 304], the DC50 at KAT2A was less than 1 nM; on KAT2B, 1 to 30 nM.
On to `CN1C[C@H](Nc2cnn(C)c(=O)c2Cl)C[C@H](c2ccc(CN3CCN(c4cc5c(cc4F)C(=O)N(C4CCC(=O)NC4=O)C5=O)CC3)cc2)C1` (stereo partly drawn) [Compound 305], for which the DC50 on KAT2A was 1 to 30 nM; at KAT2B, more than 30 nM.
The matching figures for `Cc1c(N[C@@H]2C[C@H](c3ccc(CN4CCN(c5cc6c(cc5F)C(=O)N(C5CCC(=O)NC5=O)C6=O)CC4)cc3)CN(C)C2)cnn(C)c1=O` (stereo partly drawn) [Compound 306]: 1 to 30 nM and more than 30 nM.
The matching figures for `Cc1cc(N2CC(N3CCN(C(=O)c4ccc([C@H]5C[C@@H](Nc6cnn(C)c(=O)c6Br)CN(C)C5)cc4)CC3)C2)ccc1C1CCC(=O)NC1=O` (stereo partly drawn) [Compound 307]: less than 1 nM and 1 to 30 nM.
For `Cc1cc(N2CC(N3CCN(C(=O)c4ccc([C@H]5C[C@@H](Nc6cnn(C)c(=O)c6Cl)CN(C)C5)cc4)CC3)C2)ccc1C1CCC(=O)NC1=O` (stereo partly drawn) [Compound 308], in that order: less than 1 nM and 1 to 30 nM.
As for `Cc1cc(N2CCC(N3CCN(C(=O)c4ccc([C@H]5C[C@@H](Nc6cnn(C)c(=O)c6Br)CN(C)C5)cc4)CC3)CC2)ccc1C1CCC(=O)NC1=O` (stereo partly drawn) [Compound 309], the 50% degradation concentration (DC50) was less than 1 nM on KAT2A and more than 30 nM on KAT2B.
The matching figures for `Cc1cc(N2CCC(N3CCN(C(=O)c4ccc([C@H]5C[C@@H](Nc6cnn(C)c(=O)c6Cl)CN(C)C5)cc4)CC3)CC2)ccc1C1CCC(=O)NC1=O` (stereo partly drawn) [Compound 310]: less than 1 nM and more than 30 nM.
For `Cc1cc(N2CCN(C3CN(C(=O)c4ccc([C@H]5C[C@@H](Nc6cnn(C)c(=O)c6Br)CN(C)C5)cc4)C3)CC2)ccc1C1CCC(=O)NC1=O` (stereo partly drawn) [Compound 311], in that order: 1 to 30 nM and more than 30 nM.
The matching figures for `Cc1cc(N2CCN(C3CCN(C(=O)c4ccc([C@H]5C[C@@H](Nc6cnn(C)c(=O)c6Br)CN(C)C5)cc4)CC3)CC2)ccc1C1CCC(=O)NC1=O` (stereo partly drawn) [Compound 312]: less than 1 nM and more than 30 nM.
`CN1C[C@H](Nc2ccn(C)c(=O)c2Br)C[C@H](c2ccc(C(=O)N3CCC4(CCC(c5ccc(C6CCC(=O)NC6=O)cc5)CC4)CC3)cc2)C1` (stereo partly drawn) [Compound 313]: the DC50 on KAT2A and at KAT2B was less than 1 nM throughout.
Turning to `CN1C[C@H](Nc2ccn(C)c(=O)c2Cl)C[C@H](c2ccc(C(=O)N3CCC4(CCC(c5ccc(C6CCC(=O)NC6=O)cc5)CC4)CC3)cc2)C1` (stereo partly drawn) [Compound 314], the DC50 at KAT2A is less than 1 nM; at KAT2B, 1 to 30 nM.
The matching figures for `Cc1c(N[C@@H]2C[C@H](c3ccc(C(=O)N4CCC5(CCC(c6ccc(C7CCC(=O)NC7=O)cc6)CC5)CC4)cc3)CN(C)C2)ccn(C)c1=O` (stereo partly drawn) [Compound 315]: less than 1 nM and 1 to 30 nM.
For `Cc1c(N[C@@H]2C[C@H](c3ccc(C(=O)N4CCC5(CC4)CCN(c4ccc(C6CCC(=O)NC6=O)c(F)c4)CC5)cc3)CN(C)C2)cnn(C)c1=O` (stereo partly drawn) [Compound 316], in that order: less than 1 nM and less than 1 nM.
The matching figures for `CN1C[C@H](Nc2cnn(C)c(=O)c2Cl)C[C@H](c2ccc(C(=O)N3CCC4(CC3)CCN(c3ccc(C5CCC(=O)NC5=O)c(F)c3)CC4)cc2)C1` (stereo partly drawn) [Compound 317]: less than 1 nM and less than 1 nM.
Regarding `COc1cc(N2CCC3(CCN(C(=O)c4ccc([C@H]5C[C@@H](Nc6cnn(C)c(=O)c6Br)CN(C)C5)cc4)CC3)CC2)ccc1C1CCC(=O)NC1=O` (stereo partly drawn) [Compound 318], the figures for the half-maximal degradation concentration (DC50) at KAT2A and on KAT2B were less than 1 nM and 1 to 30 nM, respectively.
Turning to `COc1cc(C2CCC3(CC2)CCN(C(=O)c2ccc([C@H]4C[C@@H](Nc5cnn(C)c(=O)c5Cl)CN(C)C4)cc2)CC3)ccc1C1CCC(=O)NC1=O` (stereo partly drawn) [Compound 319], the half-maximal degradation concentration (DC50) on KAT2A was less than 1 nM; on KAT2B, 1 to 30 nM.
For the compound `COc1cc(C2CCC3(CC2)CCN(C(=O)c2ccc([C@H]4C[C@@H](Nc5cnn(C)c(=O)c5C)CN(C)C4)cc2)CC3)ccc1C1CCC(=O)NC1=O` (stereo partly drawn) [Compound 320], the results for the DC50 at KAT2A and on KAT2B were less than 1 nM and 1 to 30 nM, respectively.
Turning to `CN1C[C@H](Nc2cnn(C)c(=O)c2Br)C[C@H](c2ccc(C(=O)N3CCC4(CCC(c5ccc(C6CCC(=O)NC6=O)cn5)CC4)CC3)cc2)C1` (stereo partly drawn) [Compound 321], the half-maximal degradation concentration (DC50) at KAT2A and at KAT2B was less than 1 nM in each case.
Consider `CN1C[C@H](Nc2cnn(C)c(=O)c2Cl)C[C@H](c2ccc(C(=O)N3CCC4(CCC(c5ccc(C6CCC(=O)NC6=O)cn5)CC4)CC3)cc2)C1` (stereo partly drawn) [Compound 322], for which the DC50 on KAT2A and at KAT2B was less than 1 nM in each case.
Take `CN1C[C@H](Nc2cnn(C)c(=O)c2Br)C[C@H](c2ccc(C(=O)N3CCC4(CCC(c5ccc(C6CCC(=O)NC6=O)cc5)CC4)CC3)cc2)C1` (stereo partly drawn) [Compound 323]: the DC50 on KAT2A and on KAT2B was less than 1 nM each time.
As for `CN1C[C@H](Nc2cnn(C)c(=O)c2Cl)C[C@H](c2ccc(C(=O)N3CCC4(CCC(c5ccc(C6CCC(=O)NC6=O)cc5)CC4)CC3)cc2)C1` (stereo partly drawn) [Compound 324], the DC50 on KAT2A and on KAT2B was less than 1 nM throughout.
Regarding `CN1C[C@H](Nc2cnn(C)c(=O)c2Br)C[C@H](c2ccc(C(=O)N3CCC4(CCC(c5ccc(C6CCC(=O)NC6=O)c(F)c5)CC4)CC3)cc2)C1` (stereo partly drawn) [Compound 325], the DC50 at KAT2A and at KAT2B was less than 1 nM in each case.
As to `CN1C[C@H](Nc2cnn(C)c(=O)c2Br)C[C@H](c2ccc(C(=O)N3CCC4(CCC(c5ccc(C6CCC(=O)NC6=O)cc5)CC4)CC3)cc2)C1` (stereo partly drawn) [Compound 326], the DC50 at KAT2A and at KAT2B was less than 1 nM throughout.
In the case of `CN1C[C@H](Nc2cnn(C)c(=O)c2Cl)C[C@H](c2ccc(C(=O)N3CCC(Cc4ccc(N5CCC(=O)NC5=O)c(F)c4)CC3)cc2)C1` [Compound 327], the DC50 on KAT2A is less than 1 nM; on KAT2B it was 1 to 30 nM.
For `CN1C[C@H](Nc2cnn(C)c(=O)c2Br)C[C@H](c2ccc(C(=O)N3CCC(Cc4ccc(C5CCC(=O)NC5=O)c(F)c4)CC3)cc2)C1` (stereo partly drawn) [Compound 328], in that order: less than 1 nM and less than 1 nM.
